Type in all cases: in vivo, Wistar rats
A short description of data set [1]: Urinary excretion after intravenous C3G. The text has this:
(§1) Twenty-two male Wistar rats (Rattus Norvegicus, Harlan Italy S.r.l.), of same age (15 weeks), 293–390 g of body weight, were used. The rats were randomly divided into 5 groups, according to the time that elapsed after intravenous administration of the test compound, and one control group. Each time point was represented by four biological replicates. All animals were allowed to acclimate to the animal facility of the University of Trieste for at least 2 week before studies were initiated. The experimental design was vetted and approved by the bioethical committee of the University of Trieste (internal code 140PAS14), according to the provisions of the European Community Council Directive 2010/63/EU[39]. The methods were carried out in accordance with the approved guidelines. The animals (n = 22) were maintained in cages in a room at 23 ± 2 °C, 50–60% humidity with a 12-hour light-dark cycle. The night before the experiment, food was withdrawn from the cages but water was given ad libitum. On the day of the experiment, the rats were anesthetized with intra-peritoneal administration of tiletamine/zolazepam (1:1, 25 mg/kg body weight) and xylazine (10 mg/kg body weight). During anaesthesia (10 min in all cases), the heart and ventilation rate were monitored. The rats were placed on their backs, with the ventral side up and with the legs spread separately on a thermo-isolated support. The penis was extruded by sliding the prepuce downwards. The dorsal penis vein was then seen along both sides of the penis and exactly 10 min after anaesthesia 0.2 mL PBS without (control group) or with (treated group) 668 nmol cyanidin 3-glucoside (C3G) in PBS was injected using a 24-G hypodermic needle. Then the injection site was pressed with a swab for a few seconds, and the glans was encouraged to retract to prevent further bleeding. One min before sacrificing the rats, sodium heparin (0.1 ml, 500 IU) was injected again into the dorsal penis vein, exposed in the same way. […] Blood draining and excision of the organs were carried out according to the literature. In detail, blood was collected from the neck of rats hold upside down, immediately after their decapitation, which happened at the time points sharp. Exsanguination took 5 seconds; laparotomy and excision of the liver and the kidneys took 5 more seconds. The post-decapitation procedures were standardised. Urine was collected through the urinary bladder with a syringe before decapitation. Kidneys, liver and brain were washed with mQ water, immediately frozen in liquid nitrogen and stored at −80 °C.
(§2) Immediately after sampling, 5 mL of blood were transferred into ice-cold (−20 °C), deoxygenated aqueous 95% methanol in a ratio 1:9 (v/v). The urine was weighted and transferred into ice-cold, deoxygenated aqueous 95% methanol at a ratio of 1:9 (w/v). Frozen kidneys, liver and brain were grounded under cryogenic conditions (−196 °C) to 5 μm particles in a CryoMill (Retsch, Germany), using a single 25 mm i. d. steel ball (30 seconds, 25/sec frequency). The pulverized tissue was rapidly transferred (without thawing) into ice-cold, deoxygenated aqueous 95% methanol at a ratio of 1:9 (w/v). Cinnamic acid-d5, as internal standard, was dissolved in the aqueous methanol at concentration of 0.1 mg/L for the monitoring of the extraction protocol in biofluids and tissues.
(§3) All samples were extracted with an orbital shaker for 10 min at room temperature. The methanol extracts were then centrifuged for 5 min at 3600 rpm at 4 °C, decanted under a stream of nitrogen in 50 mL dark glass vessels and stored at −80 °C. Clean-up of extracted samples in methanol was performed by solid phase extraction (SPE), as previously described. Briefly, 5 mL of extracted samples were evaporated on a rotary evaporator and reconstituted in 10 mL of acidified water. Anthocyanins were extracted by solid-phase adsorption onto a hydrophobic matrix (Sep-Pak C18, 0.35 g, Waters, Milford, MA). […]

Data set [2] in a line: Plasma concentrations and pharmacokinetics after intravenous bolus of C3G (NCA and two-compartment model). The following applies: male, Wistar, rat, plasma, iv; for concentration at 2 min: 2 min after i.v. 668 nmol C3G; for concentration at 2 min / concentration at 0.25 min / concentration at 5 min / concentration at 15 min / concentration at 20 min: mean ± SEM n=4; for AUC0-t / half-life: i.v. 668 nmol C3G; for AUC0-t: read-out: AUC0–20 (converted); for half-life: 668 nmol, read-out: Half life; for concentration at 0.25 min: 0.25 min after i.v. 668 nmol C3G; for concentration at 5 min: 5 min after i.v. 668 nmol C3G; for concentration at 15 min: 15 min after i.v. 668 nmol C3G; for concentration at 20 min: 20 min after i.v. 668 nmol C3G.
Source text: as §1, §2, §3

Data set [3] in a line: Liver concentrations and tissue pharmacokinetics after intravenous C3G. The following applies: for AUC0-t: i.v. 668 nmol C3G.
Source text: as §1, §2, §3

Data set [4] can be described thus: Kidney concentrations and tissue pharmacokinetics after intravenous C3G.
Source text: as §1, §2, §3

The nature of data set [5]: Brain concentrations and tissue pharmacokinetics after intravenous C3G.
Source text: as §1, §2, §3

Where [6] appears, read: 0.25 min after i.v. 668 nmol C3G.
[7] abbreviates: 0.25–20 min after i.v. 668 nmol C3G.
The mark [8] stands for this setting: 0.25 min after i.v. 668 nmol C3G, mean ± SEM n=4.

This note sets out measurements from publication PMC4786809, “Determination of cyanidin 3-glucoside in rat brain, liver and kidneys by UPLC/MS-MS and its application to a short-term pharmacokinetic study” (Scientific Reports, 2016).

Take `OC[C@H]1O[C@@H](Oc2cc3c(O)cc(O)cc3[o+]c2-c2cc(O)c(O)c(O)c2)[C@H](O)[C@@H](O)[C@@H]1O` [D3G, Delphinidin-3-O-β-glucoside]: the Urine concentration in data set [1] (setting [6]) is recorded as 0.02 ± 0.01 nmol/g; in data set [1] (2 min after i.v. 668 nmol C3G) it was 0.03 ± 0.00 nmol/g; in data set [1] (5 min after i.v. 668 nmol C3G), 0.05 ± 0.01 nmol/g; in data set [1] (15 min after i.v. 668 nmol C3G) it was 0.02 ± 0.01 nmol/g; in data set [1] (20 min after i.v. 668 nmol C3G), 0.03 ± 0.01 nmol/g. Moreover, in data set [2], the concentration at 2 min worked out at 12.8 ± 10.5 nM.

For orientation: half-life means the time needed for the level to fall by half in the phase considered. Consider `COc1cc(-c2[o+]c3cc(O)cc(O)c3cc2O[C@@H]2O[C@H](CO)[C@@H](O)[C@H](O)[C@H]2O)cc(OC)c1O` [M3G, Malvidin-3-O-β-glucoside], for which, in data set [1] (setting [6]), the Urine concentration was 0.02835 ± 0.01787 nmol/g. The compound further gave a Urine concentration in data set [1] (2 min after i.v. 668 nmol C3G) of 0.00957 ± 0.00452 nmol/g. The compound further had a Urine concentration in data set [1] (5 min after i.v. 668 nmol C3G) of 0.00515 ± 0.00188 nmol/g. The compound further registered a Urine concentration in data set [1] (15 min after i.v. 668 nmol C3G) of 0.00317 ± 0.00164 nmol/g. In data set [2], the AUC0-t was 5.72 nM·h, the half-life turned out to be 5.29 min, the concentration at 0.25 min came to 9.13 ± 3.46 nM and the concentration at 2 min came out at 95.8 ± 61.7 nM. In data set [2], this compound registered a concentration at 5 min of 16.4 ± 13.1 nM, a concentration at 15 min of 3.67 ± 0.14 nM and a concentration at 20 min of 8.6 ± 3.88 nM.

`OC[C@H]1O[C@@H](Oc2cc3c(O)cc(O)cc3[o+]c2-c2ccc(O)cc2)[C@H](O)[C@@H](O)[C@@H]1O` [PG3G, Pelargonidin-3-O-β-glucoside] showed a Urine concentration in data set [1] (setting [6]) of 0.00157 ± 0.0004 nmol/g. The same compound displayed a Urine concentration in data set [1] (2 min after i.v. 668 nmol C3G) of 0.00792 ± 0.00259 nmol/g. The compound further returned a Urine concentration in data set [1] (5 min after i.v. 668 nmol C3G) of 0.04709 ± 0.00416 nmol/g. This compound gave a Urine concentration in data set [1] (15 min after i.v. 668 nmol C3G) of 0.03322 ± 0.01609 nmol/g. The compound also came in with a Urine concentration in data set [1] (20 min after i.v. 668 nmol C3G) of 0.02098 ± 0.00561 nmol/g. For the same compound, in data set [2], the AUC0-t was 0.673 nM·h, the half-life worked out at 44.7 min, the concentration at 0.25 min was 4.5 ± 0.62 nM and the concentration at 2 min was found to be 1.89 ± 0.17 nM. In data set [2], the concentration at 5 min was determined as 2.01 ± 0.28 nM, the concentration at 15 min turned out to be 1.9 ± 0.19 nM and the concentration at 20 min was 1.55 ± 0.13 nM.

`COc1cc(-c2[o+]c3cc(O)cc(O)c3cc2O[C@@H]2O[C@H](CO)[C@@H](O)[C@H](O)[C@H]2O)ccc1O` [PN3G, Peonidin-3-O-β-glucoside]: the Urine concentration in data set [1] (setting [6]) stood at 0.01 ± 0.00 nmol/g; in data set [1] (2 min after i.v. 668 nmol C3G), 1.48 ± 0.41 nmol/g; in data set [1] (5 min after i.v. 668 nmol C3G), 6.54 ± 0.33 nmol/g; in data set [1] (15 min after i.v. 668 nmol C3G) it was 5.67 ± 2.24 nmol/g; in data set [1] (20 min after i.v. 668 nmol C3G), 5.16 ± 1.11 nmol/g. Also, the AUC0-t is 2.91 nM·h in data set [2]; 5610.12 pmol·min/g in data set [3] (liver); 20.36 nmol·min/g in data set [4] (kidneys, i.v. 668 nmol C3G); 17.10 pmol·min/g in data set [5] (brain, i.v. 668 nmol C3G). In addition, the half-life in data set [2] came out at 8.16 min; in data set [3] (male, Wistar, rat, liver, iv, 668 nmol, read-out: Half-life) it was 9.99 min; in data set [4] (male, Wistar, rat, kidney, iv, 668 nmol, kidneys), 20.8 min; in data set [5] (male, Wistar, rat, brain, iv, 668 nmol), 15.6 min. The compound further displayed a concentration at 0.25 min in data set [2] of 33.7 ± 5.51 nM. Also, the concentration at 2 min in data set [2] came out at 13.1 ± 2.35 nM. The same compound had a concentration at 5 min in data set [2] of 12.3 ± 1.37 nM. This compound registered a concentration at 15 min in data set [2] of 3.73 ± 0.94 nM. Moreover, the concentration at 20 min in data set [2] turned out to be 3.4 ± 0.22 nM. Further, the “Amounts found in liver (range over sampling times)” value in data set [3] (setting [7]) fell in the range of 100.84 to 539.38 pmol/g. Also, the “Mean concentration in liver” value in data set [3] (setting [8]) turned out to be 539.38 ± 71.33 pmol/g; in data set [3] (2 min after i.v. 668 nmol C3G) it was 317.61 ± 35.86 pmol/g; in data set [3] (5 min after i.v. 668 nmol C3G) it was 364.74 ± 44.85 pmol/g; in data set [3] (15 min after i.v. 668 nmol C3G), 216.10 ± 36.06 pmol/g; in data set [3] (20 min after i.v. 668 nmol C3G), 100.84 ± 6.33 pmol/g. In addition, the “MTTL (Mean Transit Time in the liver)” value in data set [3] (liver) is on record as 3.93 min. The Kp in data set [3] (male, Wistar, rat, intravenous, 668 nmol, liver vs plasma, read-out: AUC in liver relative to plasma) came to 32.1; in data set [4] (male, Wistar, rat, kidney, intravenous, 668 nmol, kidneys vs plasma, read-out: AUC in kidneys relative to plasma), 116; in data set [5] (male, Wistar, rat, intravenous, 668 nmol, brain vs plasma, read-out: AUC in brain as share of that in plasma), 0.0978. For the same compound, the “Mean concentration in kidneys” value came out at 1.99 ± 0.55 nmol/g in data set [4] (setting [8]); 1.56 ± 0.18 nmol/g in data set [4] (2 min after i.v. 668 nmol C3G); 0.85 ± 0.08 nmol/g in data set [4] (5 min after i.v. 668 nmol C3G); 0.89 ± 0.22 nmol/g in data set [4] (15 min after i.v. 668 nmol C3G); 0.90 ± 0.14 nmol/g in data set [4] (20 min after i.v. 668 nmol C3G). Besides, the “MTTK (Mean Transit time in kidneys)” value in data set [4] (kidneys) stood at 23.11 min. For the same compound, the “Amounts found in brain (range over sampling times)” value in data set [5] (setting [7]) lay within 0.37 to 2.07 pmol/g. For the same compound, the “Mean concentration in brain” value in data set [5] (2 min after i.v. 668 nmol C3G) was 2.07 ± 1.18 pmol/g; in data set [5] (5 min after i.v. 668 nmol C3G), 0.70 ± 0.30 pmol/g; in data set [5] (15 min after i.v. 668 nmol C3G), 0.40 ± 0.38 pmol/g; in data set [5] (20 min after i.v. 668 nmol C3G), 0.37 ± 0.13 pmol/g. Also, the “MTTB (Mean Transit Time in the brain)” value in data set [5] (brain) is recorded as 8.61 min.

`COc1ccc(-c2[o+]c3cc(O)cc(O)c3cc2O[C@@H]2O[C@H](CO)[C@@H](O)[C@H](O)[C@H]2O)cc1O` [isoPN3G]: the “Mean concentration in liver” value in data set [3] (setting [8]) amounted to 13.86 ± 4.32 pmol/g; in data set [3] (2 min after i.v. 668 nmol C3G), 6.19 ± 2.09 pmol/g; in data set [3] (5 min after i.v. 668 nmol C3G), 15.85 ± 1.82 pmol/g; in data set [3] (15 min after i.v. 668 nmol C3G), 1.39 ± 1.14 pmol/g; in data set [3] (20 min after i.v. 668 nmol C3G), 0.64 ± 0.25 pmol/g. This compound showed a half-life in data set [3] (liver) of 3.18 min. Also, in data set [3] (liver only), the “Peak relative to PN3G” value is “around 2.59 % of PN3G”. For the same compound, the AUC0-t in data set [3] (liver) came out at 145.57 pmol·min/g.
